Key:
[1] = target: Human recombinant IDO1 (Homo sapiens (Human), UniProt P14902); assay: IDO1 enzymatic assay (UV absorption at 321 nm); type: biochemical; details: human recombinant IDO1, 80 min incubation, room temperature; read-out: hIDO1 IC50
Experimental: The detailed experimental method is as follow:
The compounds described in this disclosure were dissolved in 10% DMSO to predefined concentration. All of the reactions were conducted at room temperature in this disclosure. Human recombinant IDO1 (BPS Bioscience) was added so that its concentration was 200 nm in the reaction buffer solution (200 μL). […] 10 μL test compound solution was added into the above reaction solution (200 μL), so that the final concentration of DMSO in all reaction wells was 0.5%. % concentration was volume %. After 80 min incubation of the reaction solution, the UV absorbance was measured using TECAN Infinite M1000 plate reader. For the negative control (blank), 10 μl of the assay buffer was added instead of the IDO1
All reagents (excluding human recombinant IDO1) were purchased from Sigma Aldrich, MO, USA.
(§1) The percent activity in the presence of each compound was calculated according to the following equation: % activity=[(A−Ab)/(At−Ab)]×100, where A=the absorption signal in the presence of the compound, Ab=the absorption signal of blank, At=the absorption signal in the absence of the compound. […] The IC50 was calculated using non-linear regression in Graph Pad Prism® 4.

[2] = target: HeLa cell IDO1 (Homo sapiens (Human), UniProt P14902); assay: HeLa cell based IDO1 inhibition assay (kynurenine readout, IFN-γ induced); details: HeLa cells
Sequence of HeLa cell IDO1 (P14902 whole entry): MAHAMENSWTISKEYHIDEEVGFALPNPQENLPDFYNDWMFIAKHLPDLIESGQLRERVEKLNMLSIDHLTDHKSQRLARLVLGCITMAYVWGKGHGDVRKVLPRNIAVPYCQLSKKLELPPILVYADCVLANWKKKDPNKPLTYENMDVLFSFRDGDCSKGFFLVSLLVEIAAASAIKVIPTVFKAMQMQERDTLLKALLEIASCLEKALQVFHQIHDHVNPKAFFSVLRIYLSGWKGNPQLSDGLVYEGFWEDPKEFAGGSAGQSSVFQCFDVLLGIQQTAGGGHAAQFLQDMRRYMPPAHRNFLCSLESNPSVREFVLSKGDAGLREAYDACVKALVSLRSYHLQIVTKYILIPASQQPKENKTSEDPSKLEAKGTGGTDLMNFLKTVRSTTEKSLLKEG
Experimental: HeLa cell line was purchased from ATCC, cultured in MEM/EBSS medium supplemented with 10% FBS, penn-step (100,000 U/L), non-essential amino acid (0.1 Mm), sodium pyruvate (1.0 Mm). Cells were cultured at 37° C., 95% humidity and 5% CO2. […] The detailed experimental method is as follow:
25,000 HeLa cells were placed on 96-well plates. Each well contained 100 μl culture medium, subsequently IFN-γ and test compounds at specific concentrations (concentration range between 10 μM and 1 Nm, so that the final volume of culture medium was 200 μL) were added and IFN-γ was used to induce IDO1 expression. After incubation, 140 μL supernatant was transferred to 96-well plates. After adding 6.1 N TCA (10 μL), the plates were continuously incubated at 50° C. for 30 min, to hydrolyze N-formylkynurenine produced by IDO to kynurenine. The reaction solution was then centrifuged at 2500 rpm for 10 min to remove precipitate. 100 μL/well supernatant was then transferred to another 96-well plate. 100 μL of 2% (w/v) 4-N,N-dimethyl aminobenzaldehyde acetic acid solution was added and incubated at room temperature for 10 min. The yellow color derived from kynurenine was recorded by measuring absorbance at 480 nm using a microplate reader (TECAN Infinite M1000 Pro).

[3] = target: recombinant TDO2 (Homo sapiens (Human), UniProt P48775); assay: TDO2 enzymatic assay (UV absorption at 321 nm); type: biochemical; details: 50 nM TDO2, 200 μM tryptophan, 75 min
Sequence of recombinant TDO2 (P48775 whole entry, species assumed): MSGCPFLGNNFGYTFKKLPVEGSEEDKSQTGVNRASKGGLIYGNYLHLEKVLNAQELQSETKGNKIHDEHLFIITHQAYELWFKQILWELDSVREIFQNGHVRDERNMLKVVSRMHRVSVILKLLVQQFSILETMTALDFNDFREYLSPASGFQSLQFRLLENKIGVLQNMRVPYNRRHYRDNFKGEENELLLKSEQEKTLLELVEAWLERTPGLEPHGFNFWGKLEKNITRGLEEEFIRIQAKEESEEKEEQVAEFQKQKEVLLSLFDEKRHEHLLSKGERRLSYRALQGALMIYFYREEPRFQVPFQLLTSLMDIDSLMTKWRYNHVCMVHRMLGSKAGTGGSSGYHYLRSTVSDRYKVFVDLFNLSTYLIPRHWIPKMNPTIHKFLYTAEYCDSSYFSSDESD
Experimental: The TDO2 enzymatic assay was performed by UV absorption using a recombinant TDO2 and L-Tryptophan substrate. The UV absorption signal at 321 nm is correlated with the amount of N-formylkynurenine reaction product of TDO2. The compounds were diluted in 10% DMSO and 5 μL of the dilution was added to a 100 μL reaction so that the final concentration of DMSO is 0.5% in all of reactions. All of the reactions were conducted at room temperature. The 100 μL reaction mixture in TDO2 Assay Buffer contains 50 nM TDO2, the indicated amount of the inhibitor, 200 μM tryptophan, and the coupled reaction components. The reaction mixture incubated for 75 min prior to reading the UV absorption signal. For the negative control (blank), 5 μl of the assay buffer was added instead of the TDO2.
as §1, with “Absorption signals were measured using a Tecan Infinite M1000 plate reader. Binding experiments were performed in duplicate at each concentration. The percent” for “The percent”

[4] = tested on: colon cancer MC38 cells; assay: Subcutaneous MC38 mouse colon cancer syngeneic model in C57BL/6 mice; type: in vivo; details: single agent, s.c. MC38 tumors in female C57BL/6 mice, FIG. 1
Experimental: Female mice (C57BL/6, 6-8 week old) were purchased from Shanghai Laboratory Animal Center, Chinese Academy of Sciences, Shanghai, China. Mice were housed under pathogen-free conditions with autoclaved rodent chow and water available ad libitum. Each mouse was inoculated s.c. with colon cancer MC38 cells in 0.1 mL PBS over the right lower flank. When the tumor volume reached 40 mm^3, mice were randomized based on initial tumor volume measurements and treated with either vehicle or compound 23A-3. Tumor volumes were measured with electronic digital caliper and calculated using the formula length (mm)×width (mm)^2/2 and expressed in mm^3. Student's t-test was used to evaluate the statistical significance of observed differences.

Sequence of Human recombinant IDO1 (P14902 whole entry): as the sequence (P14902 whole entry) above

## OC1C2CC3CC1CC([C@@H](O)CC1c4c(F)cccc4-c4cncn41)(C3)C2 (stereo partly shown) [Compound 23A-3]
[1]
  IC50: < 0.1 µM
[2]
  IC50: < 0.1 µM
[3]
  IC50: < 0.5 µM
[4]
  tumor growth inhibition (mean tumor volume versus dosing days): significant tumor growth inhibition effect

Reference: US10202388B2, “Fused-ring compounds, pharmaceutical composition and uses thereof” (SHANGHAI DE NOVO PHARMATECH CO., LTD., priority 2015, dated 2019)
